Measured values taken from patent US9101628B2, “Methods and composition of treating a flaviviridae family viral infection” (The Board of Trustees of the Leland Stanford Junior …, priority 2007, dated 2015).

System: HCV RNA replication
Assay: RNA replication inhibition assay (luciferase reporter-linked HCV genome)
Details: Hepatitis C virus, percentage of untreated control population; for activity at 5 µM: read-out: Residual Luciferase activity, 5 micromolar; for activity at 10 µM: read-out: Residual Luciferase activity, 10 micromolar

SMILES | activity at 5 µM | activity at 10 µM
CS(=O)(=O)N1CCC(Cn2c(CN3CCCC3)nc3ccccc32)CC1 [Compound 38] | < 80% | > 80%
c1ccc2c(c1)nc(CN1CCCC1)n2CC1CCCNC1 (stereo not shown) [Compound 39] | < 80% | < 80%
Cc1ccc(Cn2c(CN3CCCC3)nc3ccccc32)cc1 [Compound 40] | < 80% | < 80%
CC(C)c1ccc(Cn2c(CN3CCCC3)nc3ccccc32)cc1 [Compound 41] | < 80% | < 80%
FC(F)Oc1ccc(Cn2c(CN3CCCC3)nc3ccccc32)cc1 [Compound 42] | > 80% | < 80%
Clc1ccc(Cn2c(-c3cncs3)nc3ccccc32)cc1 [Compound 43] | < 80% | < 55%
O=C(O)c1ccc2c(c1)ncn2Cc1ccc(Cl)cc1 [Compound 44] | < 80% | > 80%
O=C(O)c1ccc2ncn(Cc3ccc(Cl)cc3)c2c1 [Compound 45] | > 80% | > 80%
Clc1ccc(CCn2cnc3ccccc32)cc1 [Compound 46] | > 80% | < 80%
Cc1cc2nc(CN3CCC[C@H]3CO)n(Cc3ccc(Cl)cc3)c2cc1C [Compound 47] | < 80% | < 80%
Cc1cc2nc(CN3CCC[C@@H]3CO)n(Cc3ccc(Cl)cc3)c2cc1C [Compound 48] | > 80% | < 80%
Cc1cc2nc(CN3CCCC3C)n(Cc3ccc(Cl)cc3)c2cc1C (stereo not shown) [Compound 49] | < 55% | < 55%
Cc1cc2nc(CN3CCC[C@H]3CN3CCCC3)n(Cc3ccc(Cl)cc3)c2cc1C [Compound 50] | < 20% | < 20%
Cc1cc2nc(CN3CCCC3c3ccccn3)n(Cc3ccc(Cl)cc3)c2cc1C (stereo not shown) [Compound 51] | < 20% | < 20%
Cc1cc2nc(CN3CCCC3C(N)=O)n(Cc3ccc(Cl)cc3)c2cc1C (stereo not shown) [Compound 52] | < 80% | < 80%
Cc1ccc2c(c1)ncn2Cc1ccc(Cl)cc1 [Compound 53] | < 55% | < 20%
Fc1cc2ncn(Cc3ccc(Cl)cc3)c2cc1Cl [Compound 55] | < 80% | < 80%
COc1ccc2c(c1)ncn2Cc1ccc(Cl)cc1 [Compound 56] | < 80% | < 55%
COc1cc2ncn(Cc3ccc(Cl)cc3)c2cc1OC [Compound 57] | < 80% | < 55%
Clc1ccc(Cn2cnc3cc(Cl)ccc32)cc1 [Compound 58] | < 80% | –
Cc1ccc2c(ncn2Cc2ccc(Cl)cc2)c1C [Compound 59] | < 55% | < 55%
Oc1ccc2c(c1)ncn2Cc1ccc(Cl)cc1 [Compound 60] | < 20% | < 20%
Oc1ccc2ncn(Cc3ccc(Cl)cc3)c2c1 [Compound 61] | > 80% | < 80%
Cc1cc2nc(CN3CCCC3=O)n(Cc3ccc(Cl)cc3)c2cc1C [Compound 63] | < 80% | > 80%
Clc1ccc(Cn2cnc3cc4c(cc32)OCCO4)cc1 [Compound 64] | < 80% | < 80%

SMILES | activity at 5 µM | activity at 10 µM
Cc1cc2ncn(Cc3ccc(Cl)cc3)c2cc1Cl [Compound 65] | < 80% | < 55%
Cc1cc2c(ncn2Cc2ccc(Cl)cc2)c([N+](=O)[O-])c1C [Compound 66] | < 80% | < 55%
Cc1cc2c(ncn2Cc2ccc(Cl)cc2)c(N)c1C [Compound 67] | < 80% | < 80%
CC(=O)Nc1c(C)c(C)cc2c1ncn2Cc1ccc(Cl)cc1 [Compound 68] | > 80% | > 80%
Cc1cc2c(ncn2Cc2ccc(Cl)cc2)c(NC(=O)C(C)C)c1C [Compound 69] | > 80% | < 80%
Cc1cc2c(ncn2Cc2ccc(Cl)cc2)c(NC(=O)C(F)(F)F)c1C [Compound 70] | > 80% | > 80%
Cc1cc2c(ncn2Cc2ccc(Cl)cc2)c(NC(=O)c2ccccc2)c1C [Compound 71] | > 80% | > 80%
CCCCNC(=O)Nc1c(C)c(C)cc2c1ncn2Cc1ccc(Cl)cc1 [Compound 72] | > 80% | > 80%
CCN(CC)c1c(C)c(C)cc2c1ncn2Cc1ccc(Cl)cc1 [Compound 73] | < 80% | < 55%
Cc1ccccc1Cn1cnc2c(NS(C)(=O)=O)c(C)c(C)cc21 [Compound 74] | > 80% | > 80%
Cc1cccc(Cn2cnc3c(NS(C)(=O)=O)c(C)c(C)cc32)c1 [Compound 75] | > 80% | < 80%
Cc1cc2c(nc(C)n2Cc2ccccc2)c(NS(C)(=O)=O)c1C [Compound 76] | > 80% | < 80%
Cc1cccc(Cn2c(C)nc3c(NS(C)(=O)=O)c(C)c(C)cc32)c1 [Compound 77] | > 80% | < 80%
Cc1cccc(Cn2cnc3c(NS(=O)(=O)C(F)(F)F)c(C)c(C)cc32)c1 [Compound 78] | < 55% | < 20%
Cc1cc2c(ncn2C)c(NS(C)(=O)=O)c1C [Compound 79] | < 80% | > 80%
Cc1cccc(Cn2cnc3c(NS(=O)(=O)c4ccc(F)cc4)c(C)c(C)cc32)c1 [Compound 80] | < 55% | < 80%
Cc1cc2c(ncn2Cc2ccc(Cl)cc2)c(CS(C)(=O)=O)c1C [Compound 81] | > 80% | < 80%
Cc1cc2c(ncn2Cc2ccc(Cl)cc2)c(NS(=O)(=O)c2cccc(Cl)c2)c1C [Compound 82] | > 80% | > 80%
Clc1ccc(Cn2cnc3ccncc32)cc1 [Compound 83] | < 80% | < 80%
Clc1ccc(Cn2cnc3cnccc32)cc1 [Compound 84] | < 80% | > 80%
Clc1ccc(Cn2cnc3cccnc32)cc1 [Compound 85] | > 80% | < 80%
Clc1ccc(Cn2cnc3ncccc32)cc1 [Compound 86] | > 80% | < 80%
Cc1cc2nc(C(C)O)n(Cc3ccc(Cl)cc3)c2cc1C (stereo not shown) [Compound 87] | < 55% | < 55%
Cc1cc2nc(C(C)N3CCCC3)n(Cc3ccc(Cl)cc3)c2cc1C (stereo not shown) [Compound 88] | < 55% | < 20%
Cc1cc2nc([C@H](C)N3CCC[C@H]3CO)n(Cc3ccc(Cl)cc3)c2cc1C [Compound 89] | < 55% | < 55%

SMILES | activity at 5 µM | activity at 10 µM
Cc1cc2nc([C@@H](C)C3CCC[C@H]3CO)n(Cc3ccc(Cl)cc3)c2cc1C (stereo partly shown) [Compound 90] | < 80% | < 55%
Cc1cc2nc([C@H](C)N3CCC[C@@H]3CO)n(Cc3ccc(Cl)cc3)c2cc1C [Compound 91] | > 80% | > 80%
Cc1cc2nc([C@@H](C)N3CCC[C@@H]3CO)n(Cc3ccc(Cl)cc3)c2cc1C [Compound 92] | < 55% | < 20%
Fc1cc2ncn(Cc3ccc(Cl)cc3)c2cc1F [Compound 94] | < 80% | < 55%
OC[C@H]1CCCN1Cc1nc2ccccc2n1Cc1ccc(Cl)cc1 [Compound 95] | > 80% | < 80%
Cc1cc2nc(CC3CCCC3)n(Cc3ccc(Cl)cc3)c2cc1C [Compound 96] | < 80% | < 55%
Cc1cc2nc(CN3CCC[C@@H]3C)n(Cc3ccc(Cl)cc3)c2cc1C [Compound 97] | < 55% | < 20%
Cc1cc2nc(CN3CCC[C@H]3C)n(Cc3ccc(Cl)cc3)c2cc1C [Compound 98] | < 55% | < 20%
CCCS(=O)(=O)c1nc2ccccc2n1Cc1ccc(Cl)cc1 [Compound 99] | < 20% | < 20%
Clc1ccc(Cn2ccc3cc(Cl)cnc32)cc1 [Compound 100] | > 80% | < 80%
COc1c(Cl)cnc2c1ccn2Cc1ccc(Cl)cc1 [Compound 101] | > 80% | < 80%
Cc1c(Cl)cnc2c1ccn2Cc1ccc(Cl)cc1 [Compound 102] | < 80% | < 80%
N#Cc1cnc2c(ccn2Cc2ccc(Cl)cc2)c1 [Compound 103] | > 80% | < 55%
N#Cc1ccc2c(ccn2Cc2ccc(Cl)cc2)n1 [Compound 104] | < 55% | < 55%
N#Cc1cnc2ccn(Cc3ccc(Cl)cc3)c2c1 [Compound 105] | > 80% | > 80%
COc1ccc(Cn2c(C)nc3c(NS(=O)(=O)c4ccc(F)cc4)c(C)c(C)cc32)cc1 [Compound 107] | < 80% | < 55%
CCCC(=O)NCc1nc2ccccc2n1Cc1ccccc1C [Compound 109] | > 80% | > 80%
CC(=O)NCc1nc2ccccc2n1Cc1ccc(Cl)cc1 [Compound 110] | > 80% | > 80%
O=C(Cc1ccccc1)NCCCc1nc2ccccc2n1Cc1ccc(Cl)cc1 [Compound 111] | < 55% | < 20%
CCc1nc2ccccc2n1Cc1ccc(Cl)cc1 [Compound 112] | > 80% | < 80%
CCC(=O)NCc1nc2ccccc2[nH]1 [Compound 113] | > 80% | > 80%
CCn1c(CNC=O)nc2ccccc21 [Compound 114] | > 80% | > 80%
CC(C)(C)C(=O)NCc1nc2ccccc2[nH]1 [Compound 115] | < 80% | > 80%
